Measurements published in patent US20170056381A1, “PYRIDOXAMINE FOR THE TREATMENT OF SICKLE CELL DISEASE, THALASSEMIA AND RELATED BLOOD DISEASES” (NANOMETICS LLC, priority 2014, published 2017).

Legend:
Type in all cases: in vivo, mouse
[1] = system: NY1DD mice; assay: Hypoxia/reoxygenation in NY1DD mice, intravital microscopy of cremaster venules
Description: NY1DD mice (2×n=6) were exposed to hypoxia for 16 h (gas mixture=10% O2, 0.5% CO2 and balance N2). One group of NY1 DD was then be given an intraperitoneal (i.p.) dose of pyridoxamine (400 mg/kg), dissolved in phosphate buffered saline (PBS), prior to 3 h reoxygenation in ambient conditions. The second group of NY1 DD mice was put through the same hypoxia/reoxygenation process and given vehicle (PBS) as a negative control. Healthy C57 BL/6J mice were used as healthy controls and were not exposed to hypoxia/reoxygenation stress. At the end of the reoxygenation period, the cremaster muscle was excised for intravital microscopy analysis. Intravital microscopy: Mice were anesthetized i.p. with 10% urethane and 2% α-chloralose in saline (6 ml/kg). The animals were tracheotomized and the left carotid artery cannulated to monitor systemic arterial pressure. The open cremaster muscle was prepared according to the method of Baez. The surface of the open cremaster muscle was suffused with a bicarbonate Ringer's solution of the following millimolar composition: NaCl 135.0, KCl 5.0, NaHCO3 27.0, MgCl2 0.64 and glucose 11.6. pH was adjusted to 7.35-7.4 by continuous bubbling with […]. The osmolarity of the solution, as measured by a Microosmette (Precision Systems, Inc., Sudsbury, MA) was 320 mOsm which is similar to that reported for the mouse plasma. The cremaster muscle preparation was allowed to stabilize for 30 min before the initiation of the experiment. The temperature of the suffusion solution (flow rate, 5-6 ml/min) bathing the cremaster was maintained at 34.5-35° C. and monitored by a telethermometer (YSI Inc., Yellowsprings, Ohio) during the entire experiment. Oxygen tension of the suffusion solution bathing the tissue was determined using a microoxygen electrode (model MI-730; Microelectrodes Inc., Bedford, N.H.). Microscopic observations were carried out using microscope (model BH-2; Olympus Corp., Lake Success, N.Y.) equipped with a television camera (5000 Series; Cohu, Inc., San Diego, Calif.) and a Sony U-matic video recorder (model V05800; Sony Corp., Teaneck, N.J.). Identification of venules and arterioles for observation was determined according to the published procedure. Vessel luminal diameter was measured on-line by image shearing using an image shearing device (model 907; Instruments for Physiology and Medicine, San Diego, Calif.). Red cell velocity (Vrbc) was measured along the vessel centerline using the dual-slit photodiode technique of Wayland and Johnson […]. The dual-slit photo detector was placed over the projected image of the vessel and on-line analysis of the optical signals was performed using a cross-correlator as described by Tompkins et al. (Model 102 BF; instruments for Physiology and Medicine). Vrbc measurements were made using a water immersion ×40 objective and ×6.3 eyepiece. The wall shear rates were calculated from the mean Vrbc (Vmean) and vessel diameter. The centerline Vrbc was converted to the mean red cell velocity across the vessel diameter using a conversion factor of 1.6 (Vrbc/Vmean=1.6) originally described by Baker and Wayland. Shear rates along the wall of microvessel of a given internal diameter (D) were calculated using the relationship: Wall shear rate=8 Vmean/D. Estimates of volumetric flow rates (Q) were made from Vmean and the vessel cross-sectional area (π D^2/4). Rolling leukocytes were defined as those leukocytes that distinctly roll along the endothelial surface. The rolling leukocytes were easily distinguished because of their lower velocity compared with that of leukocytes and red cells in the flow. Rolling leukocyte velocity (μm/s) represented the time required for a rolling leukocyte to traverse a given length of venule. An average of rolling velocities of approximately ten leukocytes per venule was determined by frame-by-frame analysis of video replay. […]

[2] = system: Berkeley mice; assay: Hypoxia/reoxygenation in Berkeley mice, intravital microscopy; details: single i.p. dose; Berkeley mice exposed to hypoxic stress
[3] = system: Berkeley mice; assay: BOLD MRI during hyperoxia challenge (tissue oxygenation, deoxyHb/oxyHb ratio) in Berkeley mice; details: single oral dose 400 mg/kg, gavage
Description: Experimental Design & Methods: Dose Efficacy Experiment: A single oral dose (gavage) of pyridoxamine (400 mg/kg) was administered to BERK mice (n=6) or C57bl WT mice (n=4) and CBF and deoxyHb levels measured (see below for Measurement Parameters) before treatment and 2 h, 24 h, 72 h, 5 days and 9 days after treatment. Measurement Parameters: Each animal was assessed for several parameters by magnetic resonance imaging (MRI) methods on a 9.4 T Agilent MRI system. The primary MRI methods included brain and muscle perfusion, water diffusivity and oxygenation. Data acquisition was by multi-shot (8) Echo Planer Imaging (msEPI) (segmented and interleaved). Perfusion data were acquired using amultislice FAIR-Quipps approach, and blood oxygenation was determined from T2w msEPI (BOLD). Inflammation was inferred from the mean diffusivity of water calculated from a Diffusion Tensor Imaging (DTI) measurement which estimates the apparent diffusion coefficient of water (ADC). Transverse relaxation (T2) will be assessed for tissue free-water content using 30 echos (TE: 1.3 ms-240 ms) using multiecho-spin echo approaches. Longitudinal relaxation (T1) is assessed using EPI-inversion recovery (T1: 0.1 s-7 s, TR 8 s). Tissue Oxygenation: Bold Oxygen Level Dependent (BOLD) measurements were made during a hyperoxia challenge. MRI begins while animals are exposed to 20% O2/80% N2 (6 min) and imaging continues while the inspired gas is switched to 100% O2, maintained for 6 minutes, then returned to normal room air levels. […] Perfusion measurements: Quantitative perfusion measurements (FAIR-Quipps) employ a volume coil for arterial labeling, and surface coil for signal measurement, and a TI of 1200 ms. […]
Data Analysis & Interpretation: All images are co-registered to a template using FSL tools (FMRIB Software library, Oxford, UK). […] Perfusion, BOLD activation ratios and metabolite ratios were calculated using MATLAB (Mathworks, Natick, Mass.). Parameter maps were calculated using a non-linear least squares in Matlab, or using the FMRIB FSL-based Diffusion Toolbox (DTIFIT). […]

[4] = system: Berkeley mice; assay: MRI perfusion (FAIR-Quipps) cerebral blood flow in Berkeley mice
Description: Experimental Design & Methods: Dose Efficacy Experiment: A single oral dose (gavage) of pyridoxamine (400 mg/kg) was administered to BERK mice (n=6) or C57bl WT mice (n=4) and CBF and deoxyHb levels measured (see below for Measurement Parameters) before treatment and 2 h, 24 h, 72 h, 5 days and 9 days after treatment. Measurement Parameters: Each animal was assessed for several parameters by magnetic resonance imaging (MRI) methods on a 9.4 T Agilent MRI system. The primary MRI methods included brain and muscle perfusion, water diffusivity and oxygenation. Data acquisition was by multi-shot (8) Echo Planer Imaging (msEPI) (segmented and interleaved). Perfusion data were acquired using amultislice FAIR-Quipps approach, and blood oxygenation was determined from T2w msEPI (BOLD). Inflammation was inferred from the mean diffusivity of water calculated from a Diffusion Tensor Imaging (DTI) measurement which estimates the apparent diffusion coefficient of water (ADC). Transverse relaxation (T2) will be assessed for tissue free-water content using 30 echos (TE: 1.3 ms-240 ms) using multiecho-spin echo approaches. Longitudinal relaxation (T1) is assessed using EPI-inversion recovery (T1: 0.1 s-7 s, TR 8 s). Tissue Oxygenation: Bold Oxygen Level Dependent (BOLD) measurements were made during a hyperoxia challenge. MRI begins while animals are exposed to 20% O2/80% N2 (6 min) and imaging continues while the inspired gas is switched to 100% O2, maintained for 6 minutes, then returned to normal room air levels. BOLD image signal intensity (echo-planer T2* weighted imaging) is inversely sensitive to deoxyHb levels, such that an increase in deoxyHb/oxyHb ratio causes a decrease in BOLD signal, while a decrease in this ratio causes an increase in BOLD signal intensity. Perfusion measurements: Quantitative perfusion measurements (FAIR-Quipps) employ a volume coil for arterial labeling, and surface coil for signal measurement, and a TI of 1200 ms. Water diffusion coefficient: DTI data were collected using a 7 direction assessment, from which both the mean diffusivity (DTI-MD) and fractional anisotropy (DTI-FA) were obtained. DTI-FA provides a measure of white matter integrity and DTI-MD, along with tissue T2 provides a measure of tissue inflammation.
Data Analysis & Interpretation: All images are co-registered to a template using FSL tools (FMRIB Software library, Oxford, UK). The template was constructed of an averaged high-resolution averaged T2-weighted image from 3 co-registered BERK mice, or 3 co-registered C57bl mice. Regions of interest (ROI's) were drawn from standard atlases (Paxonis) on the template, and include white matter (CC and External Caudate), gray matter (Somatosensory, Motor, Frontal, Parietal) Cortex, hippocampus, basal ganglia, cingulate, and others) and cranial muscle from the anterior region of the head. Image data was converted from native format to NIFTI format, intensity flattened, phase corrected, orientation corrected, and registered to the template. Perfusion, BOLD activation ratios and metabolite ratios were calculated using MATLAB (Mathworks, Natick, Mass.). Parameter maps were calculated using a non-linear least squares in Matlab, or using the FMRIB FSL-based Diffusion Toolbox (DTIFIT). Registration was accomplished using the FSL-FLIRT routine. […]

[5] = single i.p. dose 400 mg/kg, 16 h hypoxia, 3 h reoxygenation, cremaster venules

Compound: Cc1ncc(CO)c(CN)c1O [pyridoxamine]
- change in venule diameter ([1]; single i.p. dose 400 mg/kg, 16 h hypoxia, 3 h reoxygenation, 400 mg/kg): minimal change
- decrease in leukocyte adhesion [1, 5]: 84%
- decrease in leukocyte emigration [1, 5]: 95%
- decrease in rolling leukocytes [1, 5]: 24%
- increase in red blood cell flow velocity (Vrbc) [1, 5]: 42%
- increase in wall shear rate [1, 5]: 92%
- hypoxia/reoxygenation induced endothelial activation ([1]; single i.p. dose, NY1DD mice exposed to hypoxic stress): ameliorated
- hypoxia/reoxygenation induced endothelial activation [2]: ameliorated
- deoxygenated hemoglobin/oxygenated hemoglobin ratio in brain after treatment ([3]; 72 h after treatment): significant decrease
- time of maximum effect on brain deoxyHb/oxyHb ratio (BOLD) ([3]; brain): 72 h
- time of maximal effect on cranial muscle BOLD signal (oxyhemoglobin increase) ([3]; cranial muscle): 72 h
- time of maximum effect on cerebral blood flow (CBF) ([4]; single oral dose 400 mg/kg, gavage): 72 h
- effect on cerebral blood flow (CBF) ([4]; single oral dose 400 mg/kg, gavage, versus C57 wild type): normalized the CBF to near wild type
- time of maximum response of brain perfusion ([4]; single oral dose 100-400 mg/kg): 72 h
- effect on perfusion in the brain ([4]; single oral dose 100-400 mg/kg, versus wild type C57BL mice): normalized perfusion in the brain of Berkeley mice to wild type values
- duration of sustained effects of treatment ([4]; transgenic mouse models of SCD, single dose): up to 9 days
